Test results published in patent publication US7176035B2, “Protein-protein interactions and methods for identifying interacting proteins and the amino acid sequence at the site of interaction” (priority 1999, dated 2007).
Where no end group is shown, it is not given here.

Assays:
[1] = test system: 57 kDa protein (α- and β-tubulins); assay: Binding of rod-fixed overlapping hexapeptides of P-gp linker domains to [35S]methionine-labeled total cell lysate, SDS-PAGE; conditions: for binding affinity to the 57 kDa protein in the overlapping hexapeptide scan: total cell lysate from [35S]methionine labeled CEM or CEM/VLB1.0 cells, bound proteins eluted with SDS, 10% SDS-PAGE; for binding of resynthesized hexapeptide to the 57 kDa protein: total cell lysate from [35S]methionine labeled cells, 24 hour or 48 hour incubation (FIG. 11)
Protocol: Pre-derivatized plastic rods, active ester and polypropylene trays were purchased from Cambridge Research Biochemicals (Valley Stream, N.Y.). Peptides were synthesized on solid polypropylene rods as previously described (36, 37). Briefly, the F-moc protecting group on the prederivatized polypropylene rods as solid support (arranged in a 96-well formate) was removed by incubation with 20% (v/v) piperidine in dimethylformamide (DMF) for 30 minutes with shaking. Following the deprotection of the β-alanine spacer on the polypropylene rods, Fmoc protected amino acids were dissolved in HOBt/DMF and added to the appropriate wells containing deprotected rods. Coupling of amino acids was allowed to take place for 18 hours at room temperature after which the rods were washed in DMF (1×2 minutes), methanol (4×2 minutes), and DMF (1×2 minutes). The coupling of the second amino acid required the deprotection of the F-moc amino protecting group of the first amino acid and incubation of the rods with the second preactivated F-moc-protected amino acids (pentafluorophenyl derivatives). The reaction was allowed to proceed for 18 hours, and the rods were removed and washed as indicated above. The same steps were repeated for each amino acid coupling until the sixth amino acid was coupled. Following the last coupling step, the F-moc N-terminal protecting group was removed with 20% piperidine/DMF and the free amino group acetylated for 90 minutes in an acetylation cocktail containing acetic anhydride:diisopropylethylamine (DIEA):DMF (50:1:50 v/v/v). The side chain protecting groups of the N-terminal acetylated hexapeptides onto the polypropylene rods were removed by incubation in a cleavage mixture containing trifluoroacetic acid:phenol:ethandithiol (95:2.5:2.5 v/v/v) for 4 hours at room temperature. After the cleavage step the rods were washed with dichloromethane (DCM) and neutralized in 5% (v/v) DIEA/DCM. The deprotected peptide-coupled rods were washed in DCM, methanol and vacuum dried for 18 hours.
Following metabolic labeling of proteins with [^35S] methionine, cells were washed 3 times with phosphate buffered saline (PBS) and resuspended in hypotonic buffer (10 mM KCl, 1.5 mM MgCl2, 10 mM Tris-HCl, pH 7.4) containing protease inhibitors (2 mM PMSF, 3 μg/ml Leupeptin, 4 μg/ml pepstatin A and 1 μg/ml aprotinin) and kept on ice for 30 minutes. […] The amount of protein in the above samples was determined by the method of Lowry (69).
For a binding assay, [^35S] methionine labeled proteins from total cell lysate were mixed with equal volume of 3–6% BSA in phosphate buffered saline (PBS) and incubated with overlapping hexapeptides covalently fixed to polypropylene rods. […] The peptides-fixed rods are now ready for the next round of screening. […]

~41 kDa protein = assay: Resynthesized high affinity hexapeptides incubated with total cell lysate; assay type: binding; conditions: total cell lysate from [35S]methionine labeled cells (FIG. 11); level rises with longer incubation
Protocol: Two high affinity binding sequences ^658RSSLIR^663 (SEQ ID NO: 7) and ^669SVRGSQ^674 (SEQ ID NO: 8) from HP-gp1 linker domain were resynthesized and incubated with total cell lysate from [^35S] methionine metabolically labeled cells following 24 hour or 48 hour incubation times. Bound proteins were eluted from peptide-fixed rods and resolved by 10% SDS-PAGE. The migration of the molecular weight markers is shown to the left of the figure.
For a binding assay, [^35S] methionine labeled proteins from total cell lysate were mixed with equal volume of 3–6% BSA in phosphate buffered saline (PBS) and incubated with overlapping hexapeptides covalently fixed to polypropylene rods. The peptides and total cell lysate were incubated overnight at 4° C. The rods were then removed and washed four times in PBS. The bound proteins were eluted by incubating the peptide-fixed rods in 1×SDS sample buffer for 60 minutes at room temperature with shaking. The peptides-fixed rods, were regenerated by incubation in PBS, containing 2% SDS and 1 mM β-mercaptoethanol at 65° C. in a sonicator for 30 minutes. Following the latter incubation, the rods were washed for five minutes in 65° C. ionized water and two minutes in 65° C. methanol. The peptides-fixed rods are now ready for the next round of screening. […]

Substance | binding affinity to the 57 kDa protein in the overlapping hexapeptide scan [1] | binding of resynthesized hexapeptide to the 57 kDa protein [1] | binding of resynthesized hexapeptide to a ~41 kDa protein (~41 kDa protein)
RSSLIR: N-terminal acetylated hexapeptide from the second region of HP-gp1 linker domain, covalently fixed to polypropylene rods (Ac-RSSLIR; also: attached to polypropylene rods; listed as Homo sapiens) | bound with the highest affinity to the 57 kDa protein | bound specifically to the 57 kDa protein | bound specifically
SVRGSQ: N-terminal acetylated hexapeptide from the second region of HP-gp1 linker domain, covalently fixed to polypropylene rods (Ac-SVRGSQ; also: attached to polypropylene rods; listed as Homo sapiens) | bound with the highest affinity to the 57 kDa protein | bound specifically to the 57 kDa protein | bound specifically
